Values after ≈ are worked out from the molar mass of the structure shown. Read-outs that look alike come from different tables or passages of the source.
Experiments:
[1] = tested on: Mycobacteroides abscessus subsp. abscessus 2005–0524; test: MIC, different organisms; assay type: cell-based
Candida albicans = test: MIC, different organisms; assay type: cell-based
Bacillus subtilis = test: MIC, different organisms; assay type: cell-based
[2] = tested on: Mycolicibacterium vaccae ATCC 15483; test: MIC, different organisms; assay type: cell-based; conditions: ATCC15483
[3] = tested on: Mycobacterium smegmatis mc^2155; test: MIC, different organisms; assay type: cell-based; conditions: Mycolicibacterium smegmatis
[4] = tested on: Corynebacterium glutamicum ATCC13032; test: MIC, different organisms; assay type: cell-based
Salmonella typhimurium = test: MIC, different organisms; assay type: cell-based; conditions: Salmonella enterica
[5] = tested on: Mycobacterium canettii STB-L; test: MIC, different organisms; assay type: cell-based; conditions: Mycobacterium canetti
Pseudomonas putida = test: MIC, different organisms; assay type: cell-based
HepG2 cells = assay type: cell-based, Human; conditions: for Selective index TD50/MIC: HepG2 TD50 / H37Rv MIC; for HepG2 TD99: Toxic dose that inhibits 99% of cell growth, 3 days
Description: Human HepG2 cells (ATCC HB-8065, 4000 cells/well) were incubated for 3 days with two-fold serially diluted compounds at 37°C, under an atmosphere of 5% CO2. Cell viability was determined by the addition of resazurin (0.0025% w/v) for 5 h at 37°C and the fluorescence intensity measured as in REMA.

[6] = tested on: Corynebacterium diphtheriae; test: MIC, different organisms; assay type: cell-based
[7] = tested on: non-replicating, streptomycin-starved strain 18b; test: Activity against non-replicating strain 18b (model for latent TB); assay type: cell-based, Mycobacterium tuberculosis; conditions: streptomycin-starved 18b
[8] = tested on: Mycobacteroides abscessus subsp. bolletii 1999–0888; test: MIC, different organisms; assay type: cell-based
Enterococcus faecalis = test: MIC, different organisms; assay type: cell-based
Staphylococcus aureus = test: MIC, different organisms; assay type: cell-based
[9] = tested on: THP-1 macrophages infected with M.tb H37Rv; test: Ex vivo drug susceptibility in infected THP-1 macrophages; assay type: cell-based; conditions: Mycobacterium tuberculosis; THP-1 macrophages infected with H37Rv, 48h
[10] = tested on: Mycobacterium tuberculosis MDR 59744; test: MIC, different organisms; assay type: cell-based
in vitro = conditions: human, microsomes
Escherichia coli PQ37 = test: MIC, different organisms; assay type: cell-based
[11] = tested on: Mycobacterium tuberculosis Erdman; test: MIC, different organisms; assay type: cell-based
[12] = tested on: Mycobacteroides abscessus subsp. massiliense 2005–0484; test: MIC, different organisms; assay type: cell-based
Pseudomonas aeruginosa = test: MIC, different organisms; assay type: cell-based
Micrococcus luteus = test: MIC, different organisms; assay type: cell-based
Listeria monocytogenes = test: MIC, different organisms; assay type: cell-based
[13] = tested on: Mycobacterium tuberculosis HN878; test: MIC, different organisms; assay type: cell-based
[14] = tested on: Mycobacterium bovis BCG Pasteur; test: microbe, parasite or virus in culture; assay type: cell-based; conditions: Mycobacterium tuberculosis variant bovis BCG
[15] = microsomes
[16] = tested on: Mycobacterium avium ATCC15769; test: MIC, different organisms; assay type: cell-based
[17] = tested on: Mycobacterium marinum Strain M; test: MIC, different organisms; assay type: cell-based
M. tb H37Rv [18] = assay type: cell-based; conditions: 11626252 8.4 μM (100x the MIC50)
M. tb H37Rv ΔcydAB [19] = assay type: cell-based; conditions: ΔcydAB strain of M. tb H37Rv, even after CCCP
[20] = tested on: cydB and lipU in M. tb H37Rv; assay type: cell-based, Mycobacterium tuberculosis; conditions: M. tb H37Rv exposed to 11626252, 4 h
M. tb H37Rv [21] = assay type: cell-based; conditions: 1X - 32X MIC, 7 days
H37Rv = assay type: cell-based, Mycobacterium tuberculosis; conditions: 2.5X MIC, 24 h, compared to untreated controls
M. tb H37Rv ΔcydAB [22] = assay type: cell-based; conditions: 8X MIC, 32X MIC, 7 days, d.l. = limit of detection
M. tb H37Rv South Africa = test: Acute model of murine TB; assay type: in vivo, Mycobacterium tuberculosis; conditions: Balb/c mice
[23] = Mycobacterium canettii STB-L, read-out: MIC

| Compound | MIC [1] | MIC (Candida albicans) | MIC (Bacillus subtilis) | MIC [2] | MIC [3] | MIC [4] | MIC (Salmonella typhimurium) | MIC (Pseudomonas putida) | Selective index TD50/MIC (HepG2 cells) | HepG2 TD99 (HepG2 cells) | MIC [6] | MIC [8] | MIC (Enterococcus faecalis) | MIC (Staphylococcus aureus) | microsomal CLint (in vitro) | MIC (Escherichia coli PQ37) | MIC [11] | MIC [12] | MIC (Pseudomonas aeruginosa) | MIC (Micrococcus luteus) | also measured |
| --- | --- | --- | --- | --- | --- | --- | --- | --- | --- | --- | --- | --- | --- | --- | --- | --- | --- | --- | --- | --- | --- |
| CNc1nc(SCc2ccccc2)nc2cccc(F)c12 | – | – | – | – | – | – | – | – | – | – | – | – | – | – | – | – | – | – | – | – | melting point: 101 to 104 °C |
| CCSc1nc(NC)c2cc(C(F)(F)F)ccc2n1 | – | – | – | – | – | – | – | – | – | – | – | – | – | – | – | – | – | – | – | – | melting point: 161 to 163 °C |
| CCSc1nc(NC)c2ccccc2n1 [Compound 11626141] | 62.4 µg/mL (≈ 285 µM) | ≥ 100 µg/mL | ≥ 100 µg/mL | ≥ 100 µg/mL | 38.4 µg/mL (≈ 175 µM) | 66.8 µg/mL (≈ 305 µM) | ≥ 100 µg/mL | ≥ 100 µg/mL | 575 | 53 µg/mL | ≥ 100 µg/mL | ≥ 100 µg/mL | ≥ 100 µg/mL | ≥ 100 µg/mL | 120 µL/min/mg | ≥ 100 µg/mL | 0.01 µg/mL (≈ 0.0456 µM) | ≥ 100 µg/mL | ≥ 100 µg/mL | ≥ 100 µg/mL | MIC [5, 23]: 0.05 µg/mL (≈ 0.228 µM); Activity against non-replicating strain 18b [7]: no activity; IC50 [9]: 0.013 µg/mL (≈ 0.0593 µM); MIC ([10]; MDR59744, read-out: MIC): 0.02 µg/mL (≈ 0.0912 µM); MIC (Listeria monocytogenes): ≥ 100 µg/mL; MIC [13]: 0.05 µg/mL (≈ 0.228 µM); MIC [14]: 0.9 µg/mL (≈ 4.1 µM); Human microsome stability, clearance class [15]: high; MIC [16]: ≥ 100 µg/mL; MIC [17]: 0.1 µg/mL (≈ 0.456 µM) |
| CCNc1nc(SCC)nc2ccccc12 [Compound 11626142] | 100 µg/mL (≈ 429 µM) | 44.3 µg/mL (≈ 190 µM) | ≥ 100 µg/mL | ≥ 100 µg/mL | 75.6 µg/mL (≈ 324 µM) | 75 µg/mL (≈ 321 µM) | ≥ 100 µg/mL | ≥ 100 µg/mL | 100 | 26 µg/mL | 44.3 µg/mL (≈ 190 µM) | ≥ 100 µg/mL | ≥ 100 µg/mL | ≥ 100 µg/mL | 122 µL/min/mg | ≥ 100 µg/mL | 0.1 µg/mL (≈ 0.429 µM) | ≥ 100 µg/mL | ≥ 100 µg/mL | ≥ 100 µg/mL | MIC [5, 23]: 0.2 µg/mL (≈ 0.857 µM); Activity against non-replicating strain 18b [7]: no activity; IC50 [9]: 0.012 µg/mL (≈ 0.0514 µM); MIC ([10]; MDR59744, read-out: MIC): 0.09 µg/mL (≈ 0.386 µM); MIC (Listeria monocytogenes): ≥ 100 µg/mL; MIC [13]: 0.2 µg/mL (≈ 0.857 µM); MIC [14]: 0.8 µg/mL (≈ 3.43 µM); Human microsome stability, clearance class [15]: high; MIC [16]: 49.1 µg/mL (≈ 210 µM); MIC [17]: 0.8 µg/mL (≈ 3.43 µM) |
| CCSc1nc(NC)c2cccc(F)c2n1 [Compound 11626252] | ≥ 100 µg/mL | ≥ 100 µg/mL | ≥ 100 µg/mL | ≥ 100 µg/mL | 32.3 µg/mL (≈ 136 µM) | 47.2 µg/mL (≈ 199 µM) | ≥ 100 µg/mL | ≥ 100 µg/mL | 1950 | > 100 µg/mL | ≥ 100 µg/mL | ≥ 100 µg/mL | ≥ 100 µg/mL | ≥ 100 µg/mL | 18.1 µL/min/mg | ≥ 100 µg/mL | 0.02 µg/mL (≈ 0.0843 µM) | ≥ 100 µg/mL | ≥ 100 µg/mL | ≥ 100 µg/mL | oxygen consumption rate (OCR) after exposure (M. tb H37Rv [18]): increased; MIC [5, 23]: 0.03 µg/mL (≈ 0.126 µM); Activity against non-replicating strain 18b [7]: no activity; oxygen consumption rate (OCR) after exposure (M. tb H37Rv ΔcydAB [19]): rapid and sustained decrease; IC50 [9]: 0.011 µg/mL (≈ 0.0464 µM); MIC ([10]; MDR59744, read-out: MIC): 0.02 µg/mL (≈ 0.0843 µM); expression of cydB and lipU (qRT-PCR) [20]: Overexpression; static or cidal activity by CFU enumeration (M. tb H37Rv [21]): bacteriostatic; MIC (Listeria monocytogenes): ≥ 100 µg/mL; MIC [13]: 0.03 µg/mL (≈ 0.126 µM); remaining relative ATP level (H37Rv): 19.81±8.125%; log10 CFU/mL (M. tb H37Rv ΔcydAB [22]): < d.l.; MIC [14]: 1.6 µg/mL (≈ 6.74 µM); Human microsome stability, clearance class [15]: medium; MIC [16]: ≥ 100 µg/mL; MIC [17]: 0.007 µg/mL (≈ 0.0295 µM) |
| CCSc1nc(NC)c2ccc(F)c(F)c2n1 [Compound 11726148] | – | – | – | – | – | – | – | – | 780 | > 100 µg/mL | – | – | – | – | 28.7 µL/min/mg | – | – | – | – | – | melting point: 186 to 189 °C; decrease of bacterial burden in the lungs (M. tb H37Rv South Africa; 150 mg/kg gavage daily for 10 days, vs untreated TPGS control, p-value 0.004): 0.51 log10 CFU/organ; Human microsome stability, clearance class [15]: medium |
| NNC(=O)c1ccncc1 [INH, isoniazid, reference compound] | – | – | – | – | – | – | – | – | – | – | – | – | – | – | – | – | – | – | – | – | log10 CFU per lung (M. tb H37Rv South Africa; INH 25mg/kg gavage, 10 days, d.l. = limit of detection): < d.l. |
| CO[C@H]1/C=C/O[C@@]2(C)Oc3c(C)c(O)c4c(O)c(c(/C=N/N5CCN(C)CC5)c(O)c4c3C2=O)NC(=O)/C(C)=C\C=C\[C@H](C)[C@H](O)[C@@H](C)[C@@H](O)[C@@H](C)[C@H](OC(C)=O)[C@@H]1C [RIF, rifampicin, reference compound] | 18.1 µg/mL (≈ 22 µM) | 2.2 µg/mL (≈ 2.67 µM) | 0.3 µg/mL (≈ 0.365 µM) | 6.6 µg/mL (≈ 8.02 µM) | 0.9 µg/mL (≈ 1.09 µM) | 0.004 µg/mL (≈ 0.00486 µM) | 0.8 µg/mL (≈ 0.972 µM) | 3 µg/mL (≈ 3.65 µM) | – | – | 0.5 µg/mL (≈ 0.608 µM) | 24.8 µg/mL (≈ 30.1 µM) | 3.9 µg/mL (≈ 4.74 µM) | 1.4 µg/mL (≈ 1.7 µM) | – | 6.5 µg/mL (≈ 7.9 µM) | 0.001 µg/mL (≈ 0.00122 µM) | 9.5 µg/mL (≈ 11.5 µM) | 0.2 µg/mL (≈ 0.243 µM) | 0.2 µg/mL (≈ 0.243 µM) | MIC [5]: 0.001 µg/mL (≈ 0.00122 µM); MIC ([10]; MDR59744): ≥ 10 µg/mL; MIC (Listeria monocytogenes): 0.6 µg/mL (≈ 0.729 µM); MIC [13]: 0.0006 µg/mL (≈ 0.000729 µM); MIC [14]: 0.0008 µg/mL (≈ 0.000972 µM); MIC [16]: 27.3 µg/mL (≈ 33.2 µM); MIC [17]: 0.2 µg/mL (≈ 0.243 µM) |
